This note sets out measurements from US8202892B2, “Advanced glycation end products as active ingredients” (Henkel AG & Co. KGaA, priority 2007, dated 2012).

Type in all cases: cell-based
Test [1] relates to HGF. In words: Relative gene expression in reconstructed dermal papillae: HGF. As to conditions: 24 hours, untreated medium = 1.00, 1.66 times or greater significant. On the procedure: (§1) Reconstructed dermal papillae as described in European patent 1 455 854 were systemically treated for 24 hours with each of the test substances listed in Table 7 in the cited concentrations. The relative gene expression profile was determined for the markers HGF and KGF (important markers of the anagen phase of the hair cycle) and TGF-beta 1, TGF-beta 2 and IGFBP3 (important markers of the catagen phase of the hair cycle). Expression for incubation with the untreated medium served as the reference; values presented in the Table illustrate the differential gene expression. A differential gene expression that is 1.66 times or greater than the absolute numerical value of the control gene expression is regarded as significant.

Test [2] deals with KGF. Nature of the test: Relative gene expression in reconstructed dermal papillae: KGF. Conditions: 24 hours, untreated medium = 1.00. On the procedure:
as §1

Test [3] relates to TGF-beta 1. Nature of the test: Relative gene expression in reconstructed dermal papillae: TGF-beta 1. Conditions: 24 hours, untreated medium = 1.00. On the procedure: as §1
The subject of test [4] is TGF-beta 2. In words: Relative gene expression in reconstructed dermal papillae: TGF-beta 2. As to conditions: 24 hours, untreated medium = 1.00. How it is done:
as §1

In test [5] the test system is IGFBP3. Nature of the test: Relative gene expression in reconstructed dermal papillae: IGFBP3. As to conditions: 24 hours, untreated medium = 1.00. How it is done: as §1
Test [6] deals with markers of anagen and catagen phase of the hair cycle. Nature of the test: Relative gene expression profile of the markers of the hair cycle (statements in words). Conditions: 0.1 wt. %. How it is done:
as §1

Test [7] has as its system fibroblasts. Nature of the test: Relative vitality (cell activity) of cultivated fibroblasts, redox dye WST-1. As to conditions: untreated control = 100%. On the procedure: Vitality of the cultivated cells was determined by means of redox dyes. These dyes penetrate into the cells and are reduced by electron capture at the external mitochondrial membrane. This reduction requires a color change that is subsequently photometrically analyzed. Vitality was quantified by setting the untreated control to 100% and the measured values of the samples treated with the substances were in reference to that figure. Cell damaging means a relative vitality of less than 80%, and cell activating means greater than or equal to 120%. Cell Proliferation Reagent Wst-1 (Roche Applied Science, Mannheim, Germany) was used for this test.

Test [8] has as its system organo-typical cell cultures (reconstructed dermal papillae). Nature of the test: ATP production, ATPLite-M luciferase assay. Conditions: dermal papillae cells. How it is done: ATP determinations were made using the ATPLite™-M Assays (from Packard). The test principle of this assay is based on the fact that the lucerifase from Photinus pyralis catalyzes a reaction in which, in the presence of ATP, D-luciferin is converted to oxyluciferin. Green light is emitted in this reaction and can be measured with an illuminometer. The emitted bioluminescence light is proportional to the amount of ATP present. Determination of ATP activity is carried out in organo-typical cell cultures (reconstructed dermal papillae according to EP 1 455 854). Treatment with the substance mixture is carried out for 24 hours against an untreated control. The cells were then lysed with 100 μl/cavity of a lyse buffer contained in a test kit for 5 minutes on a shaker. The cells were then incubated an additional 5 minutes with 100 μl/cavity of the supplied substrate solution on the shaker, and the reaction mixture was subsequently transferred into a black microtitre plate. Luminescence was measured after an incubation time of 10 minutes in the dark.

Test [9] has as its system fibroblasts. Nature of the test: Proliferation of fibroblasts by CyQuant. As to conditions: for Proliferation MW: untreated control = 100%. The source says:
Determination of the proliferation of the cultivated cells provides information on the status of the cell division of the treated cells. Both cell division stimulating and cell division inhibiting substances can be defined with this analysis. An outstanding feature during the cell division is the duplication of the DNA. During the new synthesis, nucleotides are built into the newly formed DNA strand. The proliferation can be measured by offering a non-natural nucleotide derivative (bromo deoxy uridine, BrdU) to the cells for the new synthesis; the BrdU can be subsequently detected with specific antibodies. The amount of newly synthesized DNA can be quantified fluorimetrically and provides proportional information on the degree of the cell division process. Proliferation was determined by setting the untreated control to 100% and the measured values of the samples treated with the substances were in reference to that figure. For a relative proliferation of less than 80% the substance effect is said to be inhibitive, for greater than or equal to 120% the substance effect is considered to be stimulative. The CyQuant Assay Cell Proliferation Assay from Molecular Probes was used for this test according to manufacturer's directions.

Test [10] concerns IL-8. Nature of the test: Basal release of IL-8 from HaCaT keratinocytes, ELISA. Conditions: 0.5%. How it is done:
Measurement of the basal release of IL-8 provides information on the effects of substances on inflammation reactions. IL-8 is a pro-inflammatory cytokine, which plays a central role in the inflammation cascade of the skin. A reduction of the basal release of IL-8 points to potential inflammation inhibiting effects of the studied substances. In order to determine the release of the IL-8, HaCaT keratinocytes were incubated in Hanks medium with glutamax, 5% FCS and antibiotics in 24 well culture vessels. On day 2 after seeding, cells were incubated with the test substances in a concentration of 0.5%. After treatment for 15-20 h the cell culture supernatant was removed and the amount of released IL-8 was quantified by ELISA. The Quantikine IL-8 from RnD-Systems (Wiesbaden, Germany) was used for these analyses. Values illustrated in Table 5 are relative values with respect to the untreated controls from 4 independent experiments.

Test [11] relates to Hepatocyte Growth Factor (HGF). Nature of the test: HGF release from reconstructed hair follicle models, ELISA. The source says:
(§2) Both the Hepatocyte Growth Factor (HGF) and Keratinocyte Growth Factor (KGF) are important regulators of the hair cycle. A change in the availability for the substances that regulate the hair cycle in comparison with the untreated controls should be assumed. The release of HGF and KGF can be quantified with the help of commercially available ELISA kits (Quantikine, RnD-Systems, Wiesbaden, Germany). For this, reconstructed hair follicle models, which are described in the European patent 1 455 854, were incubated with the test substances for 72 hours and the concentration of the growth factors in the medium was determined in the described manner. In order to be able to rule out that the described effects could have been caused by unreacted sugar (glucose or lactose), the respective individual components were tested at the highest possible concentration. The quantities of the untreated controls were set to 100% and the quantities of the treated samples were relative to these. The standard deviations were calculated from the three biological approaches.

For test [12], the system named is Keratinocyte Growth Factor (KGF). Nature of the test: KGF release from reconstructed hair follicle models, ELISA.
Text: as §2

The mark [13] stands for this setting: 0.40% w/v, 72 hours, untreated = 100%.
The mark [14] stands for this setting: reconstructed hair follicle model.

Turning to `Cc1c(O)c(=O)ccn1CCCC[C@H](N)C(=O)O` [Maltosine (15), maltosine], the “Differential gene expression HGF (Anagen)” value in test [1] (0.1% (wt. %)) was −2.09. Besides, in [2] (0.1% (wt. %)), the “Differential gene expression KGF (Anagen)” value is given as −1.45. For the same molecule, the “Differential gene expression TGFβ1 (Catagen)” value in test [3] (0.1% (wt. %)) is given as 3.39. Moreover, the “Differential gene expression TGFβ2 (Catagen)” value in test [4] (0.1% (wt. %)) is listed as −2.24. In addition, in test [5] (0.1% (wt. %)), the “Differential gene expression IGFBP3 (Catagen)” value is given as 7.55. Further, the “Gene expression of markers of catagen (in words)” value in test [6] is recorded as “simultaneously increased gene expression of markers of catagen”.
For the molecule `CC1NC(NCCC[C@H](N)C(=O)O)=NC1=O` (stereo partly drawn) [Ornithinoimidazolinone (16), ornithinoimidazolinone], the “Differential gene expression HGF (Anagen)” value in test [1] (0.1% (wt. %)) is −3.30. In [2] (0.1% (wt. %)), the “Differential gene expression KGF (Anagen)” value was −1.25. In addition, the “Differential gene expression TGFβ1 (Catagen)” value in test [3] (0.1% (wt. %)) was 1.08. Also, the “Differential gene expression TGFβ2 (Catagen)” value in test [4] (0.1% (wt. %)) is −1.66. The “Differential gene expression IGFBP3 (Catagen)” value in test [5] (0.1% (wt. %)) is −1.60.
For the molecule `N[C@@H](CCCCNCC(=O)[C@@H](O)[C@H](O)[C@H](O)CO)C(=O)O` [Fructoselysine (12), N-ε-fructosyllysine], the “Differential gene expression HGF (Anagen)” value in test [1] (0.01% (wt. %)) is given as −1.92; in [1] (0.1% (wt. %)) it was −1.69. The “Differential gene expression KGF (Anagen)” value in test [2] (0.01% (wt. %)) is −1.96; in test [2] (0.1% (wt. %)), −2.49. Also, the “Differential gene expression TGFβ1 (Catagen)” value was 1.04 in [3] (0.01% (wt. %)) and −1.10 in test [3] (0.1% (wt. %)). Also, the “Differential gene expression TGFβ2 (Catagen)” value in test [4] (0.01% (wt. %)) and in test [4] (0.1% (wt. %)) was −2.40 each time. Besides, the results for the “Differential gene expression IGFBP3 (Catagen)” value in test [5] (0.01% (wt. %)) and in test [5] (0.1% (wt. %)) were −1.44 and −1.83, respectively.
As to `OC[C@H]1O[C@@H](O[C@H]2[C@H](O)[C@@H](O)C(O)O[C@@H]2CO)[C@H](O)[C@@H](O)[C@H]1O` (stereo partly drawn) [Lactose, D-(+)-lactose], the “Vitality MW” value was 97.5% in [7] (250 μg/ml); 98.6% in test [7] (500 μg/ml); 102.0% in [7] (1000 μg/ml); 116.4% in test [7] (2000 μg/ml); 119.8% in test [7] (4000 μg/ml). For the same molecule, the “Effect on synthesis rate of ATP (in words)” value in [8] is “did not lead at any time and at any concentration to a change”. For the same molecule, the “Effect on cell division activity of fibroblasts (in words)” value in test [9] is reported as “No effect could be detected”. Further, the “Proliferation MW” value in test [9] (250 μg/ml) was found to be 107.2%; in [9] (500 μg/ml), 90.4%; in test [9] (1000 μg/ml), 111.7%; in [9] (2000 μg/ml), 107.6%; in [9] (4000 μg/ml), 77.5%. The “Effect on basal release of IL-8 (in words)” value in test [10] is “did not lead to a significant change”. In addition, the “HGF release MW %” value in test [11] (setting [13]) was determined as 65.3%. The “Effect on release of HGF (in words)” value in test [11] (setting [14]) was “reduced release of HGF”. The “KGF release MW %” value in test [12] (setting [13]) is listed as 101.2%. Also, the “Effect on KGF release (in words)” value in [12] (setting [14]) was “distinct effect due to treatment with sugars (lactose and glucose) could not be established”.
Regarding `O=CC(=O)C[C@H](O)[C@H](O)CO` [3-Desoxyglucosulose (18), 3-desoxyglucosulose], the “Differential gene expression HGF (Anagen)” value is listed as −2.09 in test [1] (0.01% (wt. %)) and −1.78 in test [1] (0.1% (wt. %)). The “Differential gene expression KGF (Anagen)” value is recorded as −1.33 in test [2] (0.01% (wt. %)) and −1.93 in test [2] (0.1% (wt. %)). Further, the entries for the “Differential gene expression TGFβ1 (Catagen)” value in test [3] (0.01% (wt. %)) and in [3] (0.1% (wt. %)) were 1.02 and −1.27, respectively. Besides, the “Differential gene expression TGFβ2 (Catagen)” value in test [4] (0.01% (wt. %)) is recorded as −1.67; in test [4] (0.1% (wt. %)) it was −1.54. Besides, the entries for the “Differential gene expression IGFBP3 (Catagen)” value in test [5] (0.01% (wt. %)) and in [5] (0.1% (wt. %)) were −1.20 and −2.12, respectively.
In the case of `Cc1occc(=O)c1O` [Maltol, 3-hydroxy-2-methyl-4H-pyran-4-one], the “Differential gene expression HGF (Anagen)” value in [1] (0.01% (wt. %)) is −1.23; in test [1] (0.025% (wt. %)), 1.07. The “Differential gene expression KGF (Anagen)” value in test [2] (0.01% (wt. %)) is −1.87; in test [2] (0.025% (wt. %)) it was −3.02. Further, the “Differential gene expression TGFβ1 (Catagen)” value is on record as −1.28 in test [3] (0.01% (wt. %)) and −1.20 in test [3] (0.025% (wt. %)). For the same molecule, the “Differential gene expression TGFβ2 (Catagen)” value in test [4] (0.01% (wt. %)) is listed as −1.86; in test [4] (0.025% (wt. %)), −3.21. Further, the “Differential gene expression IGFBP3 (Catagen)” value in [5] (0.01% (wt. %)) is recorded as −1.69; in [5] (0.025% (wt. %)) it was −3.63.
With `N[C@@H](CCCCNCC(=O)O)C(=O)O` [Carboxymethyllysine (13), N-ε-carboxymethyllysine], the “Differential gene expression HGF (Anagen)” value in test [1] (0.1% (wt. %)) is −1.77. Moreover, in [2] (0.1% (wt. %)), the “Differential gene expression KGF (Anagen)” value is given as 1.24. Further, in test [3] (0.1% (wt. %)), the “Differential gene expression TGFβ1 (Catagen)” value stood at 1.35. Further, the “Differential gene expression TGFβ2 (Catagen)” value in [4] (0.1% (wt. %)) is listed as −1.07. In addition, the “Differential gene expression IGFBP3 (Catagen)” value in test [5] (0.1% (wt. %)) worked out at 1.98.
